Three molecules from patent US11518739B2, “Sulfonamide carboxamide compounds” (Inflazome Limited, priority 2017, dated 2022) can be followed below.

Structures can show the parent of a compound that is named as a salt.

For experiment [1], the target named is T1, NLRP3 (Homo sapiens, UniProt Q96P20). Nature of the experiment: Human whole blood IL-1β release assay (LPS + nigericin, AlphaLisa). More on the design: Plate out 80 μl of whole blood containing 1 μg/ml of LPS in 96-well, clear bottom cell culture plate; from tissue; host or cells: human whole blood from healthy donors (Li-heparin). The settings on record: NLRP3 inhibitory activity in human whole blood, 1 μg/ml LPS, 10 μM nigericin, read-out: HWB IC50. The experiment is classed as cell-based. The procedure:
For systemic delivery, the ability to inhibit NLRP3 when the compounds are present within the bloodstream is of great importance. For this reason, the NLRP3 inhibitory activity of a number of compounds in human whole blood was investigated in accordance with the following protocol.
Human whole blood in Li-heparin tubes was obtained from healthy donors from a volunteer donor panel. • 1. Plate out 80 μl of whole blood containing 1 μg/ml of LPS in 96-well, clear bottom cell culture plate (Corning #3585) • 2. Add 10 μl compound (8 points half-log dilution with 10 μM top dose) or vehicle (DMSO 0.1% FAC) to the appropriate wells • 3. Incubate for 3 hrs at 37° C., 5% CO2 • 4. Add 10 μl nigericin (Sigma #N7143) (10 μM FAC) to all wells • 5. Incubate for 1 hr at 37° C., 5% CO2 • 6. At the end of the incubation period, spin plates at 300×g for 5 mins to pellet cells and remove 20 μl of supernatant and add to 96-well v-bottom plates for IL-1β analysis (note: these plates containing the supernatants can be stored at −80° C. to be analysed at a later date) • 7. IL-1β was measured according to the manufacturer protocol (Perkin Elmer-AlphaLisa IL-1 Kit AL220F-5000) • 8. IC50 data is fitted to a non-linear regression equation (log inhibitor vs response-variable slope 4-parameters)
In general terms: In Alpha technology, singlet oxygen from a donor bead excites a nearby acceptor bead.

The target of experiment [2] is T1, NLRP3. The experiment is described as follows: THP-1 cells pyroptosis assay (LPS-primed, nigericin-triggered, resazurin readout). More on the design: Seed THP-1 cells (25,000 cells/well) containing 1.0 μg/ml LPS in 40 μl of RPMI medium; host or cells: THP-1 cells, LPS-primed, nigericin-triggered. The following applies: NLRP3 inhibitory activity in THP-1 cells, 1.0 μg/ml LPS, 5 μM nigericin. The experiment is classed as cell-based. The procedure:
THP-1 cells (ATCC #TIB-202) were grown in RPMI containing L-glutamine (Gibco #11835) supplemented with ImM sodium pyruvate (Sigma #S8636) and penicillin (100 units/ml)/streptomycin (0.1 mg/ml) (Sigma #P4333) in 10% Fetal Bovine Serum (FBS) (Sigma #F0804). The cells were routinely passaged and grown to confluency ([…]). On the day of the experiment, THP-1 cells were harvested and resuspended into RPMI medium (without FBS). The cells were then counted and viability (>90%) checked by Trypan blue (Sigma #T8154). Appropriate dilutions were made to give a concentration of 625,000 cells/ml. To this diluted cell solution was added LPS (Sigma #L4524) to give a 1 μg/ml Final Assay Concentration (FAC). […] of the final preparation was aliquoted into each well of a 96-well plate. The plate thus prepared was used for compound screening.
The following method step-by-step assay was followed for compound screening. • 1. Seed THP-1 cells (25,000 cells/well) containing 1.0 μg/ml LPS in 40 μl of RPMI medium (without FBS) in 96-well, black walled, clear bottom cell culture plates coated with poly-D-lysine (VWR #734-0317) • 2. Add 5 μl compound (8 points half-log dilution, with 10 μM top dose) or vehicle (DMSO 0.1% FAC) to the appropriate wells • 3. Incubate for 3 hrs at 37° C. in 5% CO2 • 4. Add 5 μl nigericin (Sigma #N7143) (FAC 5 μM) to all wells • 5. Incubate for 1 hr at 37° C. and 5% CO2 • 6. At the end of the incubation period, spin plates at 300×g for 3 mins and remove supernatant • 7. Then add 50 μl of resazurin (Sigma #R7017) (FAC 100 μM resazurin in RPMI medium without FBS) and incubate plates for a further 1-2 hrs at 37° C. and 5% CO2 • 8. Plates were read in an Envision reader at Ex 560 nm and Em 590 nm • 9. IC50 data is fitted to a non-linear regression equation (log inhibitor vs response-variable slope 4-parameters)
A general note: Resazurin is reduced to fluorescent resorufin, in cell work by metabolically active cells.

T1 sequence (Q96P20 whole entry): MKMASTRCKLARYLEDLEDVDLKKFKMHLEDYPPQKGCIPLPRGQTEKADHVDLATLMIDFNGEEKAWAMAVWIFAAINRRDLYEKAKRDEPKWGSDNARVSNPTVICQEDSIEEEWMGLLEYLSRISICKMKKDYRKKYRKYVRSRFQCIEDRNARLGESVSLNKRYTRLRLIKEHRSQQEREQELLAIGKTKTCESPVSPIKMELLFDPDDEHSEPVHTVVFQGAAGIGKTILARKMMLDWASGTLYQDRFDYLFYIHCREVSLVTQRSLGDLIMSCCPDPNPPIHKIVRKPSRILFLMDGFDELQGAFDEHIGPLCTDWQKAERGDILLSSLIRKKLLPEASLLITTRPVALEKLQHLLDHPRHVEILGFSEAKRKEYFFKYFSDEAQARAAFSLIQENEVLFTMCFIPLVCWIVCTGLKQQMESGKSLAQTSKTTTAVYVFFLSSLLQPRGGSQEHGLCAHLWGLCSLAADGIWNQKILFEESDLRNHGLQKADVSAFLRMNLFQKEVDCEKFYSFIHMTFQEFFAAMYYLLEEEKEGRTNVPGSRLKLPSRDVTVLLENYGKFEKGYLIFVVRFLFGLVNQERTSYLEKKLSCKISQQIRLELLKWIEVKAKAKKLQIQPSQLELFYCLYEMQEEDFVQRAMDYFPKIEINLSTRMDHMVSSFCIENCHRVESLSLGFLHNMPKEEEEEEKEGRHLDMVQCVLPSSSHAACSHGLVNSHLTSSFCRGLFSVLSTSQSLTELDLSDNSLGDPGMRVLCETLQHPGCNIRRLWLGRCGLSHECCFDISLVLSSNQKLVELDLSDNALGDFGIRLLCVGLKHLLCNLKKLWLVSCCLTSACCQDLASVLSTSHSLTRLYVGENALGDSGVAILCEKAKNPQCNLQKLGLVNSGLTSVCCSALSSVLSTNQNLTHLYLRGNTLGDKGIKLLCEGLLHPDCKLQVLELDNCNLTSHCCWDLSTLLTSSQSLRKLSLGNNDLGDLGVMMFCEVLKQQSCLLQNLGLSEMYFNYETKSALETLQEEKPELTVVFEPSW

One may read the IC50 as the concentration that gives 50% inhibition. Take `[N-]=[N+]=NCCCS(=O)(=O)NC(=O)Nc1c2c(cc3c1CCC3)CCC2` [Example 21, 3-Azido-N-((1,2,3,5,6,7-hexahydro-s-indacen-4-yl)carbamoyl) propane-1-sulfonamide, Potassium Salt]: the figures for the IC50 on NLRP3 [1] and on NLRP3 [2] were not above 5 µM and not above 1000 nM, respectively.

For `CC(c1ccccc1)S(=O)(=O)NC(=O)Nc1c2c(cc3c1CCC3)CCC2` (stereo not drawn) [Example 39, N-((1,2,3,5,6,7-Hexahydro-s-indacen-4-yl)carbamoyl)-1-phenylethanesulfonamide], the values for the IC50 on NLRP3 [1] and against NLRP3 [2] were 7.5 to 10 µM and not above 1000 nM, respectively.

For the molecule `O=C(Nc1c2c(cc3c1CCC3)CCC2)NS(=O)(=O)CCc1ccccc1` [Example 40, N-((1,2,3,5,6,7-Hexahydro-s-indacen-4-yl)carbamoyl)-2-phenylethanesulfonamide], the concentration for half-maximal inhibition (IC50) on NLRP3 [1] was more than 10 µM; on NLRP3 [2], not above 1000 nM.
